From US20200190073A1, “SUBSTITUTED SUCCINIMIDE DERIVATIVES AS PESTICIDES” (BASF SE, priority 2017, published 2020)
Like-named read-outs stand apart in the source and are kept apart here.

Legend:
Format in all cases: in vivo
[1] = system: Diamond back moth (Plutella xylostella); experiment: B.1 Diamond back moth, cabbage leaf dip; details: foliar, read-out: mortality in comparison with untreated controls
How it was run: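 Cabbage leaves were dipped in compound in 1:1 water:acetone with 0.01% surfactant, air-dried and infested with ten 3rd-instar larvae. Mortality and feeding damage (0–100% scale) were scored 72 h after treatment.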

[2] = system: Green Peach Aphid (Myzus persicae); experiment: B.2 Green peach aphid, artificial diet, systemic; details: 72 h, read-out: mortality in comparison with untreated controls
How it was run: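 Adult aphids (5-8 per well) fed through a membrane on artificial diet containing compound formulated in 75% water/25% DMSO, with two replications per concentration. Incubation lasted 3 days at about 23±1° C and 50±5% relative humidity. Mortality and fecundity were then assessed visually.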

[3] = system: Tobacco Budworm (Heliothis virescens); experiment: B.4 Tobacco budworm, insect diet with eggs; details: 120 h, read-out: mortality in comparison with untreated controls
How it was run: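 Wells held insect diet and 15–25 H. virescens eggs; compounds at several concentrations, formulated in 75:25 v/v water:DMSO, were sprayed at 10 μl onto the diet in two replicates. After 5 days at about 28±1 °C and 80±5% relative humidity, egg and larval mortality was scored visually.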

[4] = system: Boll Weevil (Anthonomus grandis); experiment: B.5 Boll weevil, insect diet with eggs; details: 120 h, read-out: mortality in comparison with untreated controls
How it was run: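 Compounds in 75% water/25% DMSO sprayed at several concentrations (5 μl, two replicates) onto insect diet in 96-well microtiter plates holding 5-10 A. grandis eggs. After 5 days at about 25±1° C and 75±5% relative humidity, egg and larval mortality scored visually.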

[5] = system: Orchid Thrips (Dichromothrips Corbetti); experiment: B.7 Orchid thrips, floral immersion; details: read-out: mortality in comparison with untreated controls
How it was run: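 Orchid flower petals dipped in compound diluted in 1:1 acetone:water plus 0.01% v/v Kinetic HV, dried, then enclosed with about 20 adult lab-colony thrips. Held under continuous light at about 28 °C; percent mortality recorded 72 hours after treatment.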

[6] = system: Rice Green Leafhopper (Nephotettix virescens); experiment: B.8 Rice green leafhopper, sprayed rice seedlings; details: read-out: mortality in comparison with untreated controls
How it was run: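 Potted rice seedlings, washed 24 h earlier, were sprayed with 5-6 ml of compound in 1:1 acetone:water plus 0.01% surfactant. Once dry, they were caged and infested with 10 adults, then held at about 28-29° C and 50-60% RH. Percent mortality was scored at 72 h.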

[7] = system: Green Soldier Stink Bug (Nezara viridula); experiment: B.11 Green soldier stink bug, sprayed soybean pods; details: 120 h, read-out: mortality in comparison with untreated controls
How it was run: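 Ten late 3rd-instar N. viridula on soybean pods in Petri dishes were sprayed with compound in 1:1 water:acetone plus 0.01% surfactant. Dishes were held at about 25° C. Percent mortality was scored after 5 days.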

[8] = system: Brown Marmorated Stink Bug (Halyomorpha halys); experiment: B.13 Brown marmorated stink bug, spray; details: 120 h, read-out: mortality in comparison with untreated controls
Description: B.13 Brown Marmorated Stink Bug (Halyomorpha halys)
The active compound was dissolved at the desired concentration in a mixture of 1:1 (vol:vol) distilled water:acetone. Surfactant (Kinetic HV) was added at a rate of 0.01% (vol/vol). The test solution was prepared at the day of use.
Row peanuts and soybean seeds were placed into microwavable plastic cups and inoculated with five adult stage H. halys. Using a hand atomizer, approximately 1 ml solution is sprayed into each cup, insects and food present. A water source was provided (cotton wick with water) Each treatment is replicated 4-fold. Assay arenas are kept at about 25° C. Percent mortality was recorded after 5 days.

[9] = system: Southern Armyworm (Spodoptera eridania), 2nd Instar Larvae; experiment: CE.7 Southern armyworm, 2nd instar larvae, comparative test; details: foliar, 96 h, leaf dip, at 4 days, read-out: % mortality in comparison to untreated controls
Description: The tables show % mortality in comparison to untreated controls.
CE.7 Southern Armyworm (Spodoptera eridania), 2nd Instar Larvae
The active compounds were formulated in 50:50 acetone:water (vol) and 100 ppm Kinetica™ surfactant.
A pair of first true leaves of Sieva lima bean was dipped into the test solution and allowed to dry. The leaves were then placed in a plastic perforated zip enclosure bag and ten 2nd instar larvae were added. At 4 days, observations were made of mortality and reduced feeding.

[10] = 2500 ppm, egg and larval mortality, 5 days

Compound	mortality at 300 ppm ([1]; 72 h) [%]	mortality at 2500 ppm [2] [%]	mortality at 2500 ppm [3] [%]	mortality at 2500 ppm [4] [%]	mortality at 300 ppm ([5]; Thrips, 72 h) [%]	mortality at 300 ppm ([6]; 72 h) [%]	mortality at 300 ppm [7] [%]	mortality at 100 ppm [8] [%]	mortality at 3 ppm [9] [%]	mortality at 300 ppm ([1]; 300 ppm, cabbage leaf dip, 3rd instar larvae, 72 hours after treatment) [%]	mortality at 2500 ppm ([2]; 2500 ppm, adult aphids on treated diet, 3 days) [%]	mortality at 2500 ppm [3, 10] [%]	mortality at 2500 ppm [4, 10] [%]	mortality at 300 ppm ([5]; 300 ppm, adult thrips, 72 hours after treatment) [%]	mortality at 300 ppm ([6]; 300 ppm, adults on sprayed rice seedlings, after 72 hours) [%]	mortality at 300 ppm ([7]; 300 ppm, late 3rd instar, after 5 days) [%]
CN1C(=O)CC(NC(=O)c2ccc(C3=NOC(c4cc(Cl)c(F)c(Cl)c4)(C(F)(F)F)C3)cc2Cl)C1=O (centres unmarked) [Compound I-1-2, 2-Chloro-4-[5-(3,5-dichloro-4-fluoro-phenyl)-5-(trifluoromethyl)-4H-isoxazol-3-yl]-N-(1-methyl-2,5-dioxo-pyrrolidin-3-yl)benzamide]	> 75	> 75	> 75	> 75	> 75	> 75	> 75	> 75	100							
CCN1C(=O)CC(NC(=O)c2ccc(C3=NOC(c4cc(Cl)c(F)c(Cl)c4)(C(F)(F)F)C3)cc2Cl)C1=O (centres unmarked) [Compound I-1-3]	> 75	> 75	> 75	> 75	> 75	> 75	> 75	> 75	100							
CN1C(=O)CC(NC(=O)c2ccc(C3=NOC(c4cc(Cl)c(F)c(Cl)c4)(C(F)(F)F)C3)c3c2CCC3)C1=O (centres unmarked) [Compound I-1-10]	> 75	> 75	> 75	> 75	> 75	> 75	> 75		100							
CN1C(=O)C[C@@H](NC(=O)c2ccc(C3=NOC(c4cc(Cl)c(F)c(Cl)c4)(C(F)(F)F)C3)cc2Cl)C1=O (some centres unmarked) [Compound I-1-13]	> 75	> 75	> 75	> 75	> 75	> 75	> 75	> 75								
CCN1C(=O)C[C@@H](NC(=O)c2ccc(C3=NOC(c4ccc(F)c(Cl)c4)(C(F)(F)F)C3)cc2Cl)C1=O (some centres unmarked) [Compound I-1-53]										> 75	> 75	> 75	> 75	> 75	> 75	> 75
